Measured values published in patent publication US10399933B2, “Inhibitors of indoleamine-2,3-dioxygenase for the treatment of cancer” (BRISTOL-MYERS SQUIBB COMPANY, priority 2015, dated 2019).

What follows are compounds tested against human IDO1 (Homo sapiens, UniProt P14902) (assay: Human IDO-1 inhibitory activity in Hela cells (interferon-gamma stimulated)). Details: 18 hours, unstimulated wells = 100% inhibition.
Format: cell-based
Set-up: endogenous in cells; host or cells: HeLa cells stimulated with interferon-gamma
Method: HeLa cells were seeded at 20,000 cells per 30 μL per well with RPMI/phenol red free media containing 10% FBS in a 384-well tissue culture plate (black with clear bottoms). 50 nL of compound was added to cells and incubated at 37° C. for one hour. 20 μL of the recombinant human Interferon-gamma (R&D System, Cat. #285-IF, at final concentration of 10 ng/ml) or recombinant murine Interferon-gamma (PEPROTECH® Inc., Cat. #315-05, final concentration of 5 ng/ml) was added to activate IDO signaling. The cells were incubated for 18 hours in 37° C. incubator with 5% CO2.
Compound treatment was stopped by adding 5 μl trichloroacetic acid to a final concentration of 3%. Subsequently, the cell plate was further incubated at 50° C. for 30 minute. An equal volume supernatant (20 μL) and 2% (w/v) Ehrlich reagent (4-dimethylaminobenzaldehyde) in glacial acetic acid were mixed in a new clear bottom 384-well plate. This plate was incubated at room temperature for 30 minutes. Absorbance at 490 nm was measured on Envision plate reader.
Compound IC50 values were calculated using counts from unstimulated (no INF-gamma treatment) wells as 100% inhibition. INF-gamma treatment without compound treatment as 0% inhibition.

Sequence of human IDO1 (P14902 whole entry): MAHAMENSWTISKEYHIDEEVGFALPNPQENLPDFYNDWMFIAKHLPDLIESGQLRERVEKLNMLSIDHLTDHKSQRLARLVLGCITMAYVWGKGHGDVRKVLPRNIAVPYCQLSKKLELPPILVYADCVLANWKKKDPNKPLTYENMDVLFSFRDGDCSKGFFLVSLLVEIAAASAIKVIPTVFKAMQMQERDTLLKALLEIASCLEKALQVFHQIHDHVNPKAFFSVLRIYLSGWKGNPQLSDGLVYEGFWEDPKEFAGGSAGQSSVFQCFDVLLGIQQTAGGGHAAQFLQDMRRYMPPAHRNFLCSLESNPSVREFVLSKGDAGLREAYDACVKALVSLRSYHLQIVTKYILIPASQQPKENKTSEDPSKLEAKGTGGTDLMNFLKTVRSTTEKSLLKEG

Compound | IC50 [nM]
3-(4-((1,1-dioxido- tetrahydro-2H- thiopyran-4-yl) (ethyl)amino)-3- ((4-fluorophenyl) amino)phenyl)-4- isopropoxy- butanoic acid [Example 341] | > 50
3-(4-((1,1-dioxidotetrahydro-2H- thiopyran-4-yl)(ethyl)amino)-3- ((4-fluorophenyl)amino)phenyl)-4- isopropoxybutanoic acid [Example 345] | > 50
CCN(c1ccc(C(COC)CC(=O)O)cc1Nc1ccc(C#N)cc1)C1CCCOC1 (single isomer, unassigned) [264 E1] | < 50
CCN(c1ccc(C(COC)CC(=O)O)cc1Nc1ccc(C#N)cc1)C1CCCOC1 (single isomer, unassigned) [264 E2] | < 5
CCN(c1ccc(C(COC)CC(=O)O)cc1Nc1ccc(C#N)cc1)C1CCCOC1 (single isomer, unassigned) [265 E1] | < 5
CCN(c1ccc(C(COC)CC(=O)O)cc1Nc1ccc(C#N)cc1)C1CCCOC1 (single isomer, unassigned) [265 E2] | < 5
CCN(c1ccc(C(COC)CC(=O)O)cc1Nc1cnc(OC)nc1)C1CCS(=O)(=O)CC1 (single isomer, unassigned) [Example 168 Enantiomer 1, 3-(4-((1,1-Dioxidotetrahydro-2H-thiopyran-4-yl)(ethyl)amino)-3-((2-methoxypyrimidin-5-yl)amino)phenyl)-4-methoxybutanoic Acid] | > 50
CCN(c1ccc(C(COC)CC(=O)O)cc1Nc1cnc(OC)nc1)C1CCS(=O)(=O)CC1 (single isomer, unassigned) [Example 168 Enantiomer 2, 3-(4-((1,1-Dioxidotetrahydro-2H-thiopyran-4-yl)(ethyl)amino)-3-((2-methoxypyrimidin-5-yl)amino)phenyl)-4-methoxybutanoic Acid] | > 50
CCOc1ncc(Nc2cc(C(COC)CC(=O)O)ccc2N(CC)C2CCS(=O)(=O)CC2)cn1 (single isomer, unassigned) [Example 175, 3-(4-((1,1-dioxidotetrahydro-2H-thiopyran-4-yl)(ethyl)amino)-3-((2-ethoxypyrimidin-5-yl)amino)phenyl)-4-methoxybutanoic acid] | > 50
CCCN(c1ccc(C(COC)CC(=O)O)cc1Nc1ccc(C#N)cc1)C1CCS(=O)(=O)CC1 (single isomer, unassigned) [Example 182 Enantiomer 1, 3-(3-((4-Cyanophenyl)amino)-4-((1,1-dioxidotetrahydro-2H-thiopyran-4-yl)(propyl)amino)phenyl)-4-methoxybutanoic Acid] | < 50
CCCN(c1ccc(C(COC)CC(=O)O)cc1Nc1ccc(C#N)cc1)C1CCS(=O)(=O)CC1 (single isomer, unassigned) [Example 182 Enantiomer 2, 3-(3-((4-Cyanophenyl)amino)-4-((1,1-dioxidotetrahydro-2H-thiopyran-4-yl)(propyl)amino)phenyl)-4-methoxybutanoic Acid] | > 50
CCN(c1ccc(C(CC(=O)O)C2CC2)cc1NC(=O)Nc1ccc(C#N)cc1)C1CCS(=O)(=O)CC1 (single isomer, unassigned) [Example 348 E1, 3-(3-(3-(4-Cyanophenyl)ureido)-4-((1,1-dioxidotetrahydro-2H-thiopyran-4-yl)(ethyl)amino)phenyl)-3-cyclopropylpropanoic Acid] | > 50
CCN(c1ccc(C(CC(=O)O)C2CC2)cc1NC(=O)Nc1ccc(C#N)cc1)C1CCS(=O)(=O)CC1 (single isomer, unassigned) [Example 348 E2, 3-(3-(3-(4-Cyanophenyl)ureido)-4-((1,1-dioxidotetrahydro-2H-thiopyran-4-yl)(ethyl)amino)phenyl)-3-cyclopropylpropanoic Acid] | > 50
CCN(c1ccc([C@H](COC)CC(=O)O)cc1Nc1ccc(C#N)cn1)C1CCOCC1 (single isomer, unassigned) [Example 389] | < 50
CCN(c1ccc([C@H](COC)CC(=O)O)cc1Nc1ccc(C#N)c(F)c1)C1CCOCC1 (single isomer, unassigned) [Example 390] | < 5
CCN(c1ccc([C@H](COC)CC(=O)O)cc1Nc1ccc(C#N)cc1F)C1CCOCC1 (single isomer, unassigned) [Example 392] | < 5
CCN(c1ccc([C@H](COC)CC(=O)O)cc1Nc1ccc(Cl)cn1)C1CCOCC1 (single isomer, unassigned) [Example 393] | < 50
CCN(c1ccc([C@H](COC)CC(=O)O)cc1Nc1ncc(Cl)cn1)C1CCOCC1 (single isomer, unassigned) [Example 394] | < 50
CCN(c1ccc([C@H](COC)CC(=O)O)cc1Nc1ccc(C#N)c(Cl)c1)C1CCOCC1 (single isomer, unassigned) [Example 418] | < 50
CCN(c1ccc([C@H](COC)CC(=O)O)cc1Nc1ccc(C#N)c(C(F)(F)F)c1)C1CCOCC1 (single isomer, unassigned) [Example 420] | > 50

Second part, the compound after the results:

IC50 [nM] | Compound
> 50 | CCN(c1ccc([C@H](COC)CC(=O)O)cc1Nc1ncc(F)cn1)C1CCOCC1 (single isomer, unassigned) [Example 396]
> 50 | CCN(c1ccc([C@H](COC)CC(=O)O)cc1Nc1cccc(OC(F)(F)C(F)F)c1)C1CCOCC1 (single isomer, unassigned) [Example 397]
< 5 | CCN(c1ccc([C@H](COC)CC(=O)O)cc1Nc1ccc(Cl)cc1F)C1CCOCC1 (single isomer, unassigned) [Example 399]
< 50 | CCN(c1ccc([C@H](COC)CC(=O)O)cc1Nc1ccc(F)cn1)C1CCOCC1 (single isomer, unassigned) [Example 400]
< 50 | CCN(c1ccc([C@H](COC)CC(=O)O)cc1Nc1ccc(F)cc1F)C1CCOCC1 (single isomer, unassigned) [Example 402]
< 50 | CCN(c1ccc([C@H](COC)CC(=O)O)cc1Nc1ccc(C#N)cc1C)C1CCOCC1 (single isomer, unassigned) [Example 404]
> 50 | CCN(c1ccc([C@H](COC)CC(=O)O)cc1Nc1cccc(C#N)c1)C1CCOCC1 (single isomer, unassigned) [Example 405]
> 50 | CCN(c1ccc([C@H](COC)CC(=O)O)cc1Nc1ccccc1C#N)C1CCOCC1 (single isomer, unassigned) [Example 406]
< 50 | CCOc1cc(Nc2cc([C@H](COC)CC(=O)O)ccc2N(CC)C2CCOCC2)ccc1C#N (single isomer, unassigned) [Example 407]
< 50 | CCN(c1ccc([C@H](COC)CC(=O)O)cc1Nc1ccc(C#N)c(OCC(F)F)c1)C1CCOCC1 (single isomer, unassigned) [Example 408]
< 50 | CCN(c1ccc([C@H](COC)CC(=O)O)cc1Nc1ccc(C#N)c(OCC(F)(F)F)c1)C1CCOCC1 (single isomer, unassigned) [Example 409]
< 5 | CCc1ccc(Nc2cc([C@H](COC)CC(=O)O)ccc2N(CC)C2CCOCC2)cc1 (single isomer, unassigned) [Example 411]
< 5 | CCN(c1ccc([C@H](COC)CC(=O)O)cc1Nc1ccc(F)cc1)C1CCOCC1 (single isomer, unassigned) [Example 412]
< 50 | CCN(c1ccc([C@H](COC)CC(=O)O)cc1Nc1ccc2nc(C)sc2c1)C1CCOCC1 (single isomer, unassigned) [Example 414]
< 5 | CCN(c1ccc([C@H](COC)CC(=O)O)cc1Nc1ccc2c(c1)OC(F)(F)O2)C1CCOCC1 (single isomer, unassigned) [Example 415]
< 50 | CCN(c1ccc([C@H](COC)CC(=O)O)cc1Nc1ccc(C#N)c(OC)c1)C1CCOCC1 (single isomer, unassigned) [Example 417]
> 50 | CCN(c1ccc([C@H](COC)CC(=O)O)cc1Nc1ccc(C#N)c(C)n1)C1CCOCC1 (single isomer, unassigned) [Example 419]
> 50 | CCN(c1ccc([C@H](COC)CC(=O)O)cc1Nc1ccc(S(=O)(=O)CC)cc1)C1CCOCC1 (single isomer, unassigned) [Example 421]
> 50 | COCC(CC(=O)O)c1ccc(N2C[C@@H](C)O[C@@H](C)C2)c(Nc2ccc(Cl)cc2)c1 (single isomer, unassigned) [Example 604]
> 50 | COCC(CC(=O)O)c1ccc(N2C[C@@H](C)O[C@@H](C)C2)c(NC(=O)Nc2ccc(C#N)cc2)c1 (single isomer, unassigned) [Example 605 Diastereomer 2]
> 50 | COCC(CC(=O)O)c1ccc(N2C[C@@H](C)O[C@@H](C)C2)c(NC(=O)Nc2ccc(Cl)cc2F)c1 (single isomer, unassigned) [Example 607]
> 50 | CCC(CC(=O)O)c1ccc(N2CCN(C(=O)OC)CC2)c(Nc2ccc(C#N)cc2)c1 (single isomer, unassigned) [Example 668 Enantiomer 2, 3-(3-((4-Cyanophenyl)amino)-4-(4-(methoxycarbonyl)piperazin-1-yl)phenyl)pentanoic Acid]
> 50 | CCC(CC(=O)O)c1ccc(N2CCNCC2)c(Nc2ccc(C#N)cc2)c1 (single isomer, unassigned) [Example 671 Enantiomer 2, 3-(3-((4-Cyanophenyl)amino)-4-(piperazin-1-yl)phenyl) pentanoic Acid]
